# According to patent EP0911319A1, “Malonic acid based matrix metalloproteinase inhibitors” (Roche Diagnostics GmbH, priority 1997, dated 1999):
# Like-named read-outs stand apart in the source and are kept apart here.
# Target: catalytic domain (Met80-Gly242) of human neutrophil collagenase (Homo sapiens, UniProt P22894)
# Type: biochemical
# Conditions: towards HNC, 8 nM enzyme, 10 µM DNP-Pro-Leu-Gly-Leu-Trp-Ala-D-Arg-NH2, 50 mM Tris/HCl pH 7.6, 25°C
# catalytic domain (Met80-Gly242) of human neutrophil collagenase, sequence (P22894 100-262): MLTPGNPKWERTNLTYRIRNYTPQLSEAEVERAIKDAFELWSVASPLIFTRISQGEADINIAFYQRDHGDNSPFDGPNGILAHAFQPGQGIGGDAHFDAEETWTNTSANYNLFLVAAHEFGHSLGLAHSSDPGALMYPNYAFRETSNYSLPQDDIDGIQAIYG
IC50 (read-out: IC50),SMILES,IC50
–,"CC(C)CC(C(=O)NO)C(=O)NCCCc1ccccc1 (racemic) [Example 1, (±)-HONH-Mal(iBu)-NH-(CH2)3-C6H5]",620 nM
300 nM,"CCCCCCCCNC(=O)C(CC(C)C)C(=O)NO (racemic) [Example 2, (±)-HONH-Mal(iBu)-NH-(CH2)7-CH3]",–
560 nM,"O=C(NO)C(CCc1ccccc1)C(=O)NCCCc1ccccc1 (racemic) [Example 3, (±)-HONH-Mal(CH2CH2-C6H5)-NH-(CH2)3-C6H5]",–
640 nM,"O=C(NO)C(Cc1ccccc1)C(=O)NCCCc1ccccc1 (racemic) [Example 4, (±)-HONH-Mal(Bn)-NH-(CH2)3-C6H5]",–
